The results in this text go back to patent US20230265116A1, “DEGRADATION OF (EGFR) BY CONJUGATION OF EGFR INHIBITORS WITH E3 LIGASE LIGAND AND METHODS OF USE” (BEIGENE, LTD., priority 2020, published 2023).

The DC50 is the concentration giving 50% degradation. The term Dmax denotes the largest share of the target that was removed.

The test system of test [1] is EGFR Del19/T790M/C797S (BaF3-DTC cells). Put plainly: EGFR degradation HTRF assay, BaF3-DTC cells. Type of test: cell-based. As to conditions: 16h treatment; for DTC Dmax (%): maximum percentage of degradation; for DC50: read-out: DTC DC50. The essentials: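 EGFR remaining after a 16 h, 37 °C exposure (8 doses, 5-fold steps from 10 uM final, 0.2% DMSO) was quantified by HTRF antibodies in cell lysate. Percent inhibition relative to DMSO control was fitted by four-parameter logistic to give DC50; Dmax denotes maximal degradation.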

In test [2] the target is T1, EGFR L858R/T790M/C797S (BaF3-LTC cells) (Homo sapiens, UniProt P00533, C797S/L858R/T790M).
T1 construct: expressed in transfected cells; host or cells: BaF3
Briefly: EGFR degradation HTRF assay, BaF3-LTC cells. Type of test: cell-based. As to conditions: BaF3-LTC, 16h treatment; for Dmax: maximum percentage of degradation, read-out: LTC Dmax (%); for DC50: read-out: LTC DC50. The method in brief:
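Cells treated 16 h at 37 °C, 5% CO2 in medium with 0.2% DMSO; top final concentration 10 uM, 5-fold dilution, 8 doses. Lysates read by HTRF (665/620 nm); degradation % versus DMSO high control, DC50 from four-parameter fit, Dmax as maximal degradation.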
A general note: In TR-FRET formats the signal depends on donor and acceptor labels being close together.

T1 sequence (P00533 25-1210 T790M/C797S/L858R): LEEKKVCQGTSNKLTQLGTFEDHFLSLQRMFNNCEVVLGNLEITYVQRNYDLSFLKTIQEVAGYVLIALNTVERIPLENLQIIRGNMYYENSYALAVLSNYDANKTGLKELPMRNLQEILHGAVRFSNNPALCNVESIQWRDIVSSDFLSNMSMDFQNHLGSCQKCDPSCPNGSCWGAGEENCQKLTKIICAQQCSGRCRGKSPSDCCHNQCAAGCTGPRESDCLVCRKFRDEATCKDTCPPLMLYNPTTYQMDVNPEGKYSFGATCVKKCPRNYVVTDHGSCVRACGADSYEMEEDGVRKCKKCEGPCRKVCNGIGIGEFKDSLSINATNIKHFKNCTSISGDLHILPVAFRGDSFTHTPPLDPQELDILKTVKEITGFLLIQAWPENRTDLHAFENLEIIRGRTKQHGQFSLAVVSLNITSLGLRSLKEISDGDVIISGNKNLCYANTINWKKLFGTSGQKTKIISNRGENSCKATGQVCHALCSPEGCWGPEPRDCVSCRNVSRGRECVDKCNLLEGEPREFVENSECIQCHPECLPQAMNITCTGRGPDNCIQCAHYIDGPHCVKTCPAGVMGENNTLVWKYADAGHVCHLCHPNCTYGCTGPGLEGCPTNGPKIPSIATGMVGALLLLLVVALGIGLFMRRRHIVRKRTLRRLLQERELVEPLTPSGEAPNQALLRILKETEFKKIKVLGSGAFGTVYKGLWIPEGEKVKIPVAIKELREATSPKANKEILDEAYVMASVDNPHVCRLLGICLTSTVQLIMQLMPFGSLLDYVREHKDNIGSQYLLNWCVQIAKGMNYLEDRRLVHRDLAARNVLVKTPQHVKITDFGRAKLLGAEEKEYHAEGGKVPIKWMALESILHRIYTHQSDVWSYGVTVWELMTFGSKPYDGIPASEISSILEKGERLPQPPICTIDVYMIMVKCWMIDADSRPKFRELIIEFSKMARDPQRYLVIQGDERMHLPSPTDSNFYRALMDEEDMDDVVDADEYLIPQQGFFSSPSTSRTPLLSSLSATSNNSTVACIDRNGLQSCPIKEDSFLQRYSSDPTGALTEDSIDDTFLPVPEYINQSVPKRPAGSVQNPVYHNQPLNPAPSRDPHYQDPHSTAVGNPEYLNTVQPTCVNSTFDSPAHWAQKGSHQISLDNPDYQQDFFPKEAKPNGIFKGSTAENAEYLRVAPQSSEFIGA

`CCc1cc(Nc2ncc(Br)c(Nc3ccc4ncn(C)c(=O)c4c3P(C)(C)=O)n2)c(OC)cc1N1CCC(N2CCN(C(=O)C3CCN(c4cc(F)c(C5CCC(=O)NC5=O)c(F)c4)C3)CC2)CC1` (centres unmarked) [Example 701, 3-(4-(3-(4-(1-(4-((5-bromo-4-((5-(dimethylphosphoryl)-3-methyl-4-oxo-3,4-dihydroquinazolin-6-yl)amino)pyrimidin-2-yl)amino)-2-ethyl-5-methoxyphenyl)piperidin-4-yl)piperazine-1-carbonyl)pyrrolidin-1-yl)-2,6-difluorophenyl)piperidine-2,6-dione]: in test [1], the “DTC Dmax (%)” value was found to be 90.24% and the DC50 turned out to be 2.23 nM. In test [2], the Dmax came out at 92.7% and the half-maximal degradation concentration (DC50) came to 9.87 nM.

As to `CCc1cc(Nc2ncc(C(C)=O)c(Nc3ccc4nccnc4c3P(C)(C)=O)n2)c(OC)cc1N1CCC(N2CCN(CCC3CCN(c4cc(F)c(C5CCC(=O)NC5=O)c(F)c4)CC3)CC2)CC1` (centres unmarked) [Example 703, 3-(4-(4-(2-(4-(1-(4-((5-acetyl-4-((5-(dimethylphosphoryl)quinoxalin-6-yl)amino)pyrimidin-2-yl)amino)-2-ethyl-5-methoxyphenyl)piperidin-4-yl)piperazin-1-yl)ethyl)piperidin-1-yl)-2,6-difluorophenyl)piperidine-2,6-dione], in test [1], the “DTC Dmax (%)” value stood at 93.35% and the 50% degradation concentration (DC50) came out at 6.81 nM. Besides, in test [2], the greatest degradation seen (Dmax) turned out to be 87.8% and the DC50 was 20 nM.

Consider `CCc1cc(Nc2ncc(Br)c(Nc3ccc4nc(C)ccc4c3P(C)(C)=O)n2)c(OC)cc1N1CCC(N2CCN(CCCOc3cc(F)c(C4CCC(=O)NC4=O)c(F)c3)CC2)CC1` (centres unmarked) [Example 704, 3-(4-(3-(4-(1-(4-((5-bromo-4-((5-(dimethylphosphoryl)-2-methylquinolin-6-yl)amino)pyrimidin-2-yl)amino)-2-ethyl-5-methoxyphenyl)piperidin-4-yl)piperazin-1-yl)propoxy)-2,6-difluorophenyl)piperidine-2,6-dione], for which, in test [1], the “DTC Dmax (%)” value is given as 82.31% and the 50% degradation concentration (DC50) was found to be 3.98 nM. Also, in test [2], the maximal degradation (Dmax) was 90.4% and the DC50 worked out at 21.9 nM.

As to `CCc1cc(Nc2ncc(Br)c(Nc3ccc4c(=O)n(C)ccc4c3P(C)(C)=O)n2)c(OC)cc1N1CCC(N2CCN(CCc3cccc4c3n(C)c(=O)n4C3CCC(=O)NC3=O)CC2)CC1` (centres unmarked) [Example 705, 3-(4-(2-(4-(1-(4-((5-bromo-4-((5-(dimethylphosphoryl)-2-methyl-1-oxo-1,2-dihydroisoquinolin-6-yl)amino)pyrimidin-2-yl)amino)-2-ethyl-5-methoxyphenyl)piperidin-4-yl)piperazin-1-yl)ethyl)-3-methyl-2-oxo-2,3-dihydro-1H-benzo[d]imidazol-1-yl)piperidine-2,6-dione], in test [1], the “DTC Dmax (%)” value amounted to 88.58% and the half-maximal degradation concentration (DC50) is 1.53 nM. In addition, in test [2], the maximal degradation (Dmax) was determined as 95.3% and the half-maximal degradation concentration (DC50) turned out to be 4.56 nM.

As to `CCc1cc(Nc2ncc(Br)c(Nc3ccc4nc(C)ccc4c3P(C)(C)=O)n2)c(OC)cc1N1CCC(N2CCN(C(=O)C(C)(C)CNc3cc(F)c(C4CCC(=O)NC4=O)c(F)c3)CC2)CC1` (centres unmarked) [Example 706, 3-(4-((3-(4-(1-(4-((5-bromo-4-((5-(dimethylphosphoryl)-2-methylquinolin-6-yl)amino)pyrimidin-2-yl)amino)-2-ethyl-5-methoxyphenyl)piperidin-4-yl)piperazin-1-yl)-2,2-dimethyl-3-oxopropyl)amino)-2,6-difluorophenyl)piperidine-2,6-dione], in test [1], the “DTC Dmax (%)” value was found to be 88.51% and the half-maximal degradation concentration (DC50) stood at 2.17 nM. Also, in test [2], the greatest degradation seen (Dmax) amounted to 90.8% and the 50% degradation concentration (DC50) was 5.64 nM.
